Results from US10793563B2, “GCN2 inhibitors and uses thereof” (Merck Patent GmbH, priority 2018, dated 2020).

How the values were obtained:
GCN2 kinase = GCN2 kinase (Homo sapiens (Human), UniProt Q9P2K8); experiment: GCN2 Enzyme Inhibition Assay (Transcreener ADP2 fluorescence polarization); assay type: biochemical; conditions: 280 μM ATP, 200 μM (RS)7 peptide, 4 nM GCN2, 25° C.; for Ki: Ki(app)
How it was run: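 Transcreener ADP2 fluorescence polarization detection of ADP from 4 nM GCN2 with (RS)7 substrate in 25 mM Tris-HCl pH 7.5, 50 mM NaCl, 10 mM MgCl2, 1 mM DTT. Compound pre-incubated with enzyme 10 min at 25 °C; reaction started by ATP, run 1 h at 25 °C. IC50 and Ki(app) by tight-binding fit.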

[1] = target: intracellular GCN2 (phosphorylation of the GCN2 substrate eIF2α) (Homo sapiens (Human), UniProt Q9P2K8); experiment: GCN2 Cellular Inhibition Assay (AlphaScreen SureFire P-eIF2α Ser51, borrelidin-treated U2OS cells); assay type: cell-based; conditions: 10 μM borrelidin, 1 h, phosphorylated eIF2α Ser51, read-out: GCN2 Biomarker (IC50)
How it was run: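 U2OS cells adhered overnight, then given compound (top 40 μM, 4-fold serial dilutions) plus 10 μM borrelidin for 1 h at 37 °C. Lysates assayed for eIF2α phospho-Ser51 by AlphaScreen SureFire; % inhibition versus borrelidin-only wells.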

Chain of GCN2 kinase (Q9P2K8 whole entry): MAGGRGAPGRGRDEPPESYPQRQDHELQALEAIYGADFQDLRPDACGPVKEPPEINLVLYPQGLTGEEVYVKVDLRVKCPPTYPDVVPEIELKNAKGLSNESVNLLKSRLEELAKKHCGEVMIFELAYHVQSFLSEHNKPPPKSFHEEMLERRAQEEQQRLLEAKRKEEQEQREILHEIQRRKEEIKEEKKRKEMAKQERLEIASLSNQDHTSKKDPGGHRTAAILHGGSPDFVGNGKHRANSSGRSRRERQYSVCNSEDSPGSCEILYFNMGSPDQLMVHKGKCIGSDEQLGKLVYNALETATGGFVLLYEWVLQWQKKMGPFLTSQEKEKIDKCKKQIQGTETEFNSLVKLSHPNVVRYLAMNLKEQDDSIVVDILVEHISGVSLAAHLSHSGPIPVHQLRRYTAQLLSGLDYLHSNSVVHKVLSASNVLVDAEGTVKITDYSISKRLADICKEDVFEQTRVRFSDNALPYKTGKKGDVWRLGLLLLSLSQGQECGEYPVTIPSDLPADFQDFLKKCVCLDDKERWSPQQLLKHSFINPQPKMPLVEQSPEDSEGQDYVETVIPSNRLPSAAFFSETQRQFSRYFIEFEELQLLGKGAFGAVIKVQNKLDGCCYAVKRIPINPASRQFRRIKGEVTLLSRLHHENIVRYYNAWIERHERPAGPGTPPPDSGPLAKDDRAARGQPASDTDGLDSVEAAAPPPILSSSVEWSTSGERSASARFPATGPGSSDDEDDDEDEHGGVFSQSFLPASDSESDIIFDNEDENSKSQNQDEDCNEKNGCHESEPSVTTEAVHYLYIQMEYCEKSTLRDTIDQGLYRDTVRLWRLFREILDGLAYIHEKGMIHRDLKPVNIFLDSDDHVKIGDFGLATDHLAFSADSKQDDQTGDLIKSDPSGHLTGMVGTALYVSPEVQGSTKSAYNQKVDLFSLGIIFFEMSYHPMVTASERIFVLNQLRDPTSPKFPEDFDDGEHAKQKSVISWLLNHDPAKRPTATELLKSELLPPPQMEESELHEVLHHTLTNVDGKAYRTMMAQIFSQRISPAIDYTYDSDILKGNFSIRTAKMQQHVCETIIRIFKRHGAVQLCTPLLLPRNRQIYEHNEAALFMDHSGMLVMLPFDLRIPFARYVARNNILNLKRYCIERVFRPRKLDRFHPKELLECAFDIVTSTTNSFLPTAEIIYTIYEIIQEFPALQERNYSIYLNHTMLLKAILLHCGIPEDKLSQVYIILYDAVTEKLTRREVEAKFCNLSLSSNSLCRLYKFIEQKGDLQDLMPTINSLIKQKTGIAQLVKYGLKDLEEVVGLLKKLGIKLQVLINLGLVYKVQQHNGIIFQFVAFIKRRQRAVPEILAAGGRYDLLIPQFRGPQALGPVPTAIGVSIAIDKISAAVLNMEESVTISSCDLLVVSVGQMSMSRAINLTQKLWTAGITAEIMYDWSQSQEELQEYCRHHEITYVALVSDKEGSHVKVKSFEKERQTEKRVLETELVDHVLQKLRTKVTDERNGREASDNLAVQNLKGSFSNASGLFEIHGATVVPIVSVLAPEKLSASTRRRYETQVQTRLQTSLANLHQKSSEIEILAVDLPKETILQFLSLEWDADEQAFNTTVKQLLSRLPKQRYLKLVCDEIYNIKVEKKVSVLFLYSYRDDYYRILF
Chain of intracellular GCN2 (phosphorylation of the GCN2 substrate eIF2α) (Q9P2K8 whole entry): as above

CS(=O)(=O)NCC1CCCN(c2nsc(-c3cnc4ccc(C(F)(F)F)cn34)n2)C1 (centres unmarked) [I-110, N-((1-(5-(6-(trifluoromethyl)imidazo[1,2-a]pyridin-3-yl)-1,2,4-thiadiazol-3-yl)piperidin-3-yl)methyl)methanesulfonamide]
Ki (GCN2 kinase): < 10 nM
IC50 [1]: 500 to 5000 nM

C[C@@H]1C[C@@H](c2cn[nH]c2)CN(c2nccc(-c3cnc4ccc(N5CC(F)(F)C5)cn34)n2)C1 [I-261, 6-(3,3-difluoroazetidin-1-yl)-3-(2-((3R,5S)-3-methyl-5-(1H-pyrazol-4-yl)piperidin-1-yl)pyrimidin-4-yl)imidazo[1,2-a]pyridine]
IC50 (GCN2 kinase): < 10 nM
IC50 [1]: < 500 nM

C[C@H]1CN(c2nc(-c3cnc4ccc(C(F)F)cn34)ns2)C[C@@H](CNS(C)(=O)=O)C1(F)F [I-103, N-(((3S,5S)-1-(3-(6-(difluoromethyl)imidazo[1,2-a]pyridin-3-yl)-1,2,4-thiadiazol-5-yl)-4,4-difluoro-5-methylpiperidin-3-yl)methyl)methanesulfonamide]
Ki (GCN2 kinase): < 10 nM
IC50 [1]: < 500 nM

NC(=O)C1(O)CCCN(c2ccnc(-c3cnc4ccc(C(F)(F)F)cn34)n2)C1 (centres unmarked) [I-213, 3-hydroxy-1-(2-(6-(trifluoromethyl)imidazo[1,2-a]pyridin-3-yl)pyrimidin-4-yl)piperidine-3-carboxamide]
IC50 (GCN2 kinase): 10 to 100 nM
IC50 [1]: 500 to 5000 nM

C[C@@H]1C[C@H](N=S(C)(C)=O)CN(c2nccc(-c3cnc4ccc(C(F)(F)F)cn34)n2)C1 [I-169, dimethyl(((3 S,5R)-5-methyl-1-(4-(6-(trifluoromethyl)imidazo[1,2-a]pyridin-3-yl)pyrimidin-2-yl)piperidin-3-yl)imino)-λ6-sulfanone]
IC50 (GCN2 kinase): 10 to 100 nM
IC50 [1]: 500 to 5000 nM

FC(F)(F)c1ccc2ncc(-c3ccnc(N4CCOC(c5cn[nH]c5)C4)n3)n2c1 (centres unmarked) [I-9, 2-(1H-Pyrazol-4-yl)-4-(4-(6-(trifluoromethyl)imidazo[1,2-a]pyridin-3-yl)pyrimidin-2-yl)morpholine]
Ki (GCN2 kinase): < 10 nM
IC50 [1]: < 500 nM

CC1CN(c2nccc(-c3cnc4ccc(Cl)cn34)n2)C(C)C(c2cn[nH]c2)N1 (centres unmarked) [I-35, 6-Chloro-3-[4-[2,5-dimethyl-3-(1H-pyrazol-4-yl)piperazin-1-yl]pyrimidin-2-yl]imidazo[12-a]pyridine]
Ki (GCN2 kinase): 10 to 100 nM
IC50 [1]: 500 to 5000 nM

CS(=O)(=O)NC1CC(C(F)(F)F)CN(c2ccnc(-c3cnc4ccc(C(F)F)cn34)n2)C1 (centres unmarked) [I-531, N-(1-(2-(6-(difluoromethyl)imidazo[1,2-a]pyridin-3-yl)pyrimidin-4-yl)-5-(trifluoromethyl)piperidin-3-yl)methanesulfonamide]
IC50 (GCN2 kinase): 10 to 100 nM
IC50 [1]: < 500 nM

CC1(C)C[C@@H]1CN1CCN(c2ccnc(-c3cnc4ccc(C(F)(F)F)cn34)n2)C[C@@H]1c1cn[nH]c1 [I-527, 3-(4-((S)-4-(((S)-2,2-dimethylcyclopropyl)methyl)-3-(1H-pyrazol-4-yl)piperazin-1-yl)pyrimidin-2-yl)-6-(trifluoromethyl)imidazo[1,2-a]pyridine]
IC50 (GCN2 kinase): 10 to 100 nM
IC50 [1]: 500 to 5000 nM

C[C@@H]1C[C@@H](NC(=O)OC(C)(C)C)CN(c2ccnc(-c3cnc4ccc(Cl)cn34)n2)C1 [I-252, tert-butyl ((3R,5R)-1-(2-(6-chloroimidazo[1,2-a]pyridin-3-yl)pyrimidin-4-yl)-5-methylpiperidin-3-yl)carbamate]
IC50 (GCN2 kinase): 100 to 1000 nM
IC50 [1]: 500 to 5000 nM

CC1(C)CN(c2ccnc(-c3cnc4ccc(C(F)(F)F)cn34)n2)CCN1S(C)(=O)=O [I-339, 3-(4-(3,3-dimethyl-4-(methylsulfonyl)piperazin-1-yl)pyrimidin-2-yl)-6-(trifluoromethyl)imidazo[1,2-a]pyridine]
IC50 (GCN2 kinase): 10 to 100 nM
IC50 [1]: 500 to 5000 nM

CN(CC1CCCN(c2ccnc(-c3cnc4ccc(Cl)cn34)n2)C1)S(C)(=O)=O (centres unmarked) [I-283, N-((1-(2-(6-chloroimidazo[1,2-a]pyridin-3-yl)pyrimidin-4-yl)piperidin-3-yl)methyl)-N-methylmethanesulfonamide]
IC50 (GCN2 kinase): 10 to 100 nM
IC50 [1]: 500 to 5000 nM

C[C@H]1CN(c2ccnc(-c3cnc4ccc(C(F)(F)F)cn34)n2)C[C@@H](CNS(C)(=O)=O)C1(F)F (stereo in doubt) [I-8, N-[[-4,4-Difluoro-5-methyl-1-[2-[6-(trifluoromethyl)imidazo[1,2-a]pyridin-3-yl]pyrimidin-4-yl]-3-piperidyl]methyl]methanesulfonamide]
Ki (GCN2 kinase): 10 to 100 nM
IC50 [1]: 500 to 5000 nM

FC(F)(F)c1ccc2ncc(-c3nc(N4CCOC(c5cn[nH]c5)C4)ns3)n2c1 (centres unmarked) [I-108, 2-(1H-pyrazol-4-yl)-4-(5-(6-(trifluoromethyl)imidazo[1,2-a]pyridin-3-yl)-1,2,4-thiadiazol-3-yl)morpholine]
Ki (GCN2 kinase): < 10 nM
IC50 [1]: < 500 nM

O=C(C1CC1(F)F)N1CCN(c2ccnc(-c3cnc4ccc(C(F)(F)F)cn34)n2)CC1c1cn[nH]c1 (centres unmarked) [I-400, (2-(1H-pyrazol-4-yl)-4-(2-(6-(trifluoromethyl)imidazo[1,2-a]pyridin-3-yl)pyrimidin-4-yl)piperazin-1-yl)(2,2-difluorocyclopropyl)methanone]
IC50 (GCN2 kinase): 10 to 100 nM
IC50 [1]: 500 to 5000 nM

Fc1cc2ncc(-c3nccc(N4CCCC(c5cn[nH]c5)C4)n3)n2cc1Br (centres unmarked) [I-326, 3-(4-(3-(1H-pyrazol-4-yl)piperidin-1-yl)pyrimidin-2-yl)-6-bromo-7-fluoroimidazo[1,2-a]pyridine]
IC50 (GCN2 kinase): < 10 nM
IC50 [1]: < 500 nM

C[C@H]1CN(c2nccc(-c3cnc4cc(F)c(Cl)cn34)n2)C[C@@H](c2cn[nH]c2)O1 [I-270, (2S,6R)-4-(4-(6-chloro-7-fluoroimidazo[1,2-a]pyridin-3-yl)pyrimidin-2-yl)-2-methyl-6-(1H-pyrazol-4-yl)morpholine]
IC50 (GCN2 kinase): < 10 nM
IC50 [1]: < 500 nM

COc1cc(-c2cnc3ccc(Cl)cn23)nc(N2C[C@H](C)C[C@@H](c3cn[nH]c3)C2)n1 [I-280, 6-chloro-3-(6-methoxy-2-((3R,5S)-3-methyl-5-(1H-pyrazol-4-yl)piperidin-1-yl)pyrimidin-4-yl)imidazo[1,2-a]pyridine]
IC50 (GCN2 kinase): 10 to 100 nM
IC50 [1]: < 500 nM

NC(=O)[C@@H]1CN(c2ccnc(-c3cnc4ccc(C(F)(F)F)cn34)n2)CCO1 [I-150, (S)-4-(2-(6-(trifluoromethyl)imidazo[1,2-a]pyridin-3-yl)pyrimidin-4-yl)morpholine-2-carboxamide]
IC50 (GCN2 kinase): 10 to 100 nM
IC50 [1]: < 500 nM

Cc1cc(-c2cnc3ccc(Cl)cn23)nc(N2C[C@@H](C)O[C@@H](c3c[nH]nc3C)C2)n1 [I-222, (2R,6S)-4-(4-(6-chloroimidazo[1,2-a]pyridin-3-yl)-6-methylpyrimidin-2-yl)-2-methyl-6-(5-methyl-1H-pyrazol-4-yl)morpholine]
IC50 (GCN2 kinase): 10 to 100 nM
IC50 [1]: < 500 nM

C[C@@H]1C[C@H](N=S(C)(C)=O)CN(c2ccnc(-c3cnc4ccc(OC(F)(F)F)cn34)n2)C1 [I-290, dimethyl(((3 S,5R)-5-methyl-1-(2-(6-(trifluoromethoxy)imidazo[1,2-a]pyridin-3-yl)pyrimidin-4-yl)piperidin-3-yl)imino)-λ6-sulfanone]
IC50 (GCN2 kinase): 10 to 100 nM
IC50 [1]: 500 to 5000 nM

FC(F)(F)c1ccc2ncc(-c3nccc(N4CCC[C@H](C(F)(F)F)C4)n3)n2c1 [I-233, (S)-6-(trifluoromethyl)-3-(4-(3-(trifluoromethyl)piperidin-1-yl)pyrimidin-2-yl)imidazo[1,2-a]pyridine]
IC50 (GCN2 kinase): 100 to 1000 nM
IC50 [1]: 500 to 5000 nM

CS(=O)(=O)NCC1CCCN(c2nc(-c3cnc4ccc(C(F)(F)F)cn34)ns2)C1 (centres unmarked) [I-112, N-((1-(3-(6-(trifluoromethyl)imidazo[1,2-a]pyridin-3-yl)-1,2,4-thiadiazol-5-yl)piperidin-3-yl)methyl)methanesulfonamide]
Ki (GCN2 kinase): < 10 nM
IC50 [1]: 500 to 5000 nM

Clc1ccc2ncc(-c3nccc(N4CCCC(c5c[nH]cn5)C4)n3)n2c1 (centres unmarked) [I-55, 6-Chloro-3-{4-[3-(1H-imidazol-4-yl)-piperidin-1-yl]-pyrimidin-2-yl}-imidazo[1,2-a]pyridine]
Ki (GCN2 kinase): 10 to 100 nM
IC50 [1]: 500 to 5000 nM

O=C(C1CC(F)(F)C1)N1CCN(c2ccnc(-c3cnc4ccc(C(F)(F)F)cn34)n2)CC1c1cn[nH]c1 (centres unmarked) [I-402, (2-(1H-pyrazol-4-yl)-4-(2-(6-(trifluoromethyl)imidazo[1,2-a]pyridin-3-yl)pyrimidin-4-yl)piperazin-1-yl)(3,3-difluorocyclobutyl)methanone]
IC50 (GCN2 kinase): 100 to 1000 nM
IC50 [1]: 500 to 5000 nM

C[C@@H]1CN(c2nccc(-c3cnc4ccc(Cl)cn34)n2)C[C@@H](c2cn[nH]c2)O1 [I-251, (2R,6R)-4-(4-(6-chloroimidazo[1,2-a]pyridin-3-yl)pyrimidin-2-yl)-2-methyl-6-(1H-pyrazol-4-yl)morpholine]
IC50 (GCN2 kinase): 10 to 100 nM
IC50 [1]: 500 to 5000 nM

C[C@@H](NS(C)(=O)=O)[C@@H]1CN(c2ccnc(-c3cnc4ccc(C(F)(F)F)cn34)n2)CCO1 (stereo in doubt) [I-404, N—((R)-1-((S)-4-(2-(6-(trifluoromethyl)imidazo[1,2-a]pyridin-3-yl)pyrimidin-4-yl)morpholin-2-yl)ethyl)methanesulfonamide]
IC50 (GCN2 kinase): 10 to 100 nM
IC50 [1]: 500 to 5000 nM

COCCn1cc([C@@H]2C[C@H](C)CN(c3nccc(-c4cnc5ccc(C(F)(F)F)cn45)n3)C2)cn1 [I-146, 3-(2-((3S,5S)-3-(1-(2-methoxyethyl)-1H-pyrazol-4-yl)-5-methylpiperidin-1-yl)pyrimidin-4-yl)-6-(trifluoromethyl)imidazo[1,2-a]pyridine]
IC50 (GCN2 kinase): 100 to 1000 nM
IC50 [1]: 500 to 5000 nM
